From patent US9404192B2, “Highly stable electrolytic water with reduced NMR half line width” (priority 2007, dated 2016)

System: Reconstructed Human Epidermids (RHEs)
Experiment: trans-epithelial electrical resistance (TEER) testing
Assay type: cell-based
Conditions: SDS 0.1% solution on RHE, FIG. 3
Method: The formulations described in Tables B-F were tested for their effect on trans-epithelial electrical resistance according to the following procedure.
1 ml of saline solution is directly applied on the tissue placed in a 6 well plate containing 4 ml of saline solution as well.
The instrument Millicell-ERS (range 0-20 kΩ) is placed with the two electrodes in the two chambers and the measure is recorded directly and reported in the laboratory note book.
Five measurements for each tissue have been done: because of the variability within the tissues the measurement done at t=0 has been taken as basal value and reference of each single tissue.
At the arrival the tissues have been placed in 6 well plates with maintenance medium (SkinEthic) for 2 hours before the TEER measurements.
The basal TEER value is measured on all the tissue as described in the method.
The tissues have been recovered in maintenance medium (1 ml) and the test items have been applied at the dose of 50 μl.
Tissues have been finally incubated at 37° C. in 5% CO2 incubator.
The tissues have been rinsed with saline solution and the second TEER measurement, corresponding to the 24 h exposure, has been performed.
The RHEs have been recovered in fresh maintenance medium (1 ml) for a 24 h post incubation time. […]

With `CCCCCCCCCCCCOS(=O)(=O)[O-].[Na+]` [sodium dodecyl sulphate] the TEER was “strong decrease of TEER”.
